Results from patent US20100184675A1, “USE OF GLUCAGON (1-29) ALONE OR IN COMBINATION WITH NEUROPEPTIDE W30 AS A THERAPEUTIC AGENT” (priority 2007, published 2010).
Ends that are not written are not given here.

Test system: drug-resistant Mycobacterium tuberculosis
Assay: Mycobacterium tuberculosis assay
Type: cell-based
Settings: 10 micrograms per ml; seven days; strain resistant to PAS, streptomycin, INH; combination 0.95:1.05 mole and all other molar ratios from 1:100 to 100:1

Trp-Tyr-Lys-His-Val-Ala-Ser-Pro-Arg-Tyr-His-Thr-Val-Gly-Arg-Ala-Ala-Gly-Leu-Leu-Met-Gly-Leu-Arg-Arg-Ser-Pro-Tyr-Leu-Trp-OH (WYKHVASPRYHTVGRAAGLLMGLRRSPYLW-OH) [Peptide 2, Neuropeptide W-30, commercially available known peptide]
inhibition of the growth of Mycobacterium tuberculosis: 100%
